Data from patent US4570006A, “Amidine compound, process for producing same and anti-complement agent comprising same” (Torii & Co. Ltd., priority 1981, dated 1986).

Legend:
Trypsin = molecular target: T1, Trypsin (Bos taurus, UniProt P00760); test: Anti-trypsin activity (inhibition of TAME hydrolysis); format: biochemical; details: read-out: ID50, trypsin
T1 sequence (P00760 24-246): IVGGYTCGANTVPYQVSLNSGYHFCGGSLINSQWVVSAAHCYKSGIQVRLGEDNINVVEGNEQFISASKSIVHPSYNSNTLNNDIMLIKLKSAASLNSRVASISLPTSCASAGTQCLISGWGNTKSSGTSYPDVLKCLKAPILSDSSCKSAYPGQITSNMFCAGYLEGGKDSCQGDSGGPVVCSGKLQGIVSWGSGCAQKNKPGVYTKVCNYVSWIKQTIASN
Description: (§1) The anti-trypsin, anti-plasmin, anti-kallikrein and anti-thrombin activities were determined according to the method of Muramatsu et al. [M. Muramatsu, T. Onishi, S. Makino, Y. Hayashi and S. Fujii, J. of Biochem., 58, 214 (1965)]. The data summarized in Table 1 are expressed in terms of molar concentration (ID50) of the test compound which inhibits 50% of the activity of each enzyme to hydrolyze TAME (tosylarginine methyl ester). The compound No. corresponds to the compound number shown in Examples.

Plasmin = Plasmin (Homo sapiens, UniProt P00747); test: Anti-plasmin activity (inhibition of TAME hydrolysis); format: biochemical; details: read-out: ID50, plasmin
Chain of Plasmin (P00747 581-810 limits assumed, species assumed): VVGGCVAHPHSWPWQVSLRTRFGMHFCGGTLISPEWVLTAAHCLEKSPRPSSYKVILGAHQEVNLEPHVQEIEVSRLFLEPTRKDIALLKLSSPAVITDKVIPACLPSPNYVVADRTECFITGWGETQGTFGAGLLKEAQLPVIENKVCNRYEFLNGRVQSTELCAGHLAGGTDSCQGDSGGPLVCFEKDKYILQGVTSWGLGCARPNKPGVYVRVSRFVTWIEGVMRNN
Chain of Plasmin (P00747 97-580 limits assumed, species assumed): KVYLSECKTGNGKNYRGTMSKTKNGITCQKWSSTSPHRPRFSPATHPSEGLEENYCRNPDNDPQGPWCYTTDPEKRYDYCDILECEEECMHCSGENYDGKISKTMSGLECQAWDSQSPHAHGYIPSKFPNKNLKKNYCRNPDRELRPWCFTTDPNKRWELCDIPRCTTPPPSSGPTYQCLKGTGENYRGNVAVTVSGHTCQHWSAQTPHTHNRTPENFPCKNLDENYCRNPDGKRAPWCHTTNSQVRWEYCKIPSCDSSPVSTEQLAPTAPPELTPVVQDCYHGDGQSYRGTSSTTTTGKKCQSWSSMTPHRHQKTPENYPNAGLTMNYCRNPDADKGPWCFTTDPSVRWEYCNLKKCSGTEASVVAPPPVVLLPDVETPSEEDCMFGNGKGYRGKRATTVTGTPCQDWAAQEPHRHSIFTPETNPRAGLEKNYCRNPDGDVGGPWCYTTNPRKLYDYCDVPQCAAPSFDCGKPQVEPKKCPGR
Description: as §1

Kallikrein = test: Anti-kallikrein activity (inhibition of TAME hydrolysis); format: biochemical; details: read-out: ID50, kallikrein
Description: as §1

Thrombin = Thrombin (Homo sapiens, UniProt P00734); test: biochemical; details: TAME hydrolysis; read-out: ID50, thrombin
Clr = molecular target: T2, Clr (Homo sapiens, UniProt P00736); test: Anti-Cl esterase activity, Clr (AAME hydrolysis); format: biochemical; details: hydrolysis of AAME; read-out: Anti-Cl activity, Clr (ID50)
T2 sequence (P00736 464-705 limits assumed): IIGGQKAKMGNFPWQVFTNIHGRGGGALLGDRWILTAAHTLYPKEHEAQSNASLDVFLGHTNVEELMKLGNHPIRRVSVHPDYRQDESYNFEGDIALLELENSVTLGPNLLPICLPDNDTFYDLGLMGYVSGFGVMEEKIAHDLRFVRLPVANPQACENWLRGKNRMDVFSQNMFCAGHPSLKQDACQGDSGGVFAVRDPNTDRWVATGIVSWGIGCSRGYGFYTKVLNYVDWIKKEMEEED
T2 sequence (P00736 18-463 limits assumed): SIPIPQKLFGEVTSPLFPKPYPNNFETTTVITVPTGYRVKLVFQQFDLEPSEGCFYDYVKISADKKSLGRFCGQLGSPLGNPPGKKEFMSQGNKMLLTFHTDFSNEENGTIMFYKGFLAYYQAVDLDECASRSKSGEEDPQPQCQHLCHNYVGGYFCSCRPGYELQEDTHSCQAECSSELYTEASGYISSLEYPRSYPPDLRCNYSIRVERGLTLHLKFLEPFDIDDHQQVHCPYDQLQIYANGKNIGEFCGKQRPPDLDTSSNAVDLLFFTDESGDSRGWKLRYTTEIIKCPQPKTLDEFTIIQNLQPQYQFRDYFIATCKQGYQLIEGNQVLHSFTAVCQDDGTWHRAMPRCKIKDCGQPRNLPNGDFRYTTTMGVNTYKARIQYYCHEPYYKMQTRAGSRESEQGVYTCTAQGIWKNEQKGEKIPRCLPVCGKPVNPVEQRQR
Description: The anti-Cl esterase ([…]) activity was determined according to the method of Okamura et al. [K. Okamura, M. Muramatsu and B. Fujii, Biochem. Biophys.

complement = test: Inhibition of complement mediated hemolysis; format: cell-based
Description: The complement mediated hemolysis is widely used as a means to determine the titration of complement. The principle of this method is based on the fact that hemolysis if caused by the activation of complement, when the latter is added to a complex (immune complex) of erythrocytes and the antibody thereof. The degree of hemolysis varies in proportion to the amount of complement added. Therefore, when a known amount of complement admixed with a Cl esterase inhibitor is used, the hemolysis must be suppressed in proportion to the inhibitory activity.
The anti-Cl esterase (Clr, Cls) activity was determined according to the method of Okamura et al. [K. Okamura, M. Muramatsu and B. Fujii, Biochem. Biophys. […] The figures in Table 2 have the following meanings: […]

Cls = molecular target: T3, Cls (Homo sapiens, UniProt P09871); test: Anti-Cl esterase activity, Cls (ATEE hydrolysis); format: biochemical; details: hydrolysis of ATEE; read-out: Anti-Cl activity, Cls (50% inhibition)
T3 sequence (P09871 438-688 limits assumed): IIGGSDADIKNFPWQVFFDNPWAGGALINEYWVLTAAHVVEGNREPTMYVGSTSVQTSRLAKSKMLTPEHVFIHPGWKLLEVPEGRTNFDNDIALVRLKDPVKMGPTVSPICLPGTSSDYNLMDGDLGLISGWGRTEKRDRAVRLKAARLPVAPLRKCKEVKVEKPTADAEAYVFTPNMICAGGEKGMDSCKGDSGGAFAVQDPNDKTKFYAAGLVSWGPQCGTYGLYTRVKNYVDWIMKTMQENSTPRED
T3 sequence (P09871 16-437 limits assumed): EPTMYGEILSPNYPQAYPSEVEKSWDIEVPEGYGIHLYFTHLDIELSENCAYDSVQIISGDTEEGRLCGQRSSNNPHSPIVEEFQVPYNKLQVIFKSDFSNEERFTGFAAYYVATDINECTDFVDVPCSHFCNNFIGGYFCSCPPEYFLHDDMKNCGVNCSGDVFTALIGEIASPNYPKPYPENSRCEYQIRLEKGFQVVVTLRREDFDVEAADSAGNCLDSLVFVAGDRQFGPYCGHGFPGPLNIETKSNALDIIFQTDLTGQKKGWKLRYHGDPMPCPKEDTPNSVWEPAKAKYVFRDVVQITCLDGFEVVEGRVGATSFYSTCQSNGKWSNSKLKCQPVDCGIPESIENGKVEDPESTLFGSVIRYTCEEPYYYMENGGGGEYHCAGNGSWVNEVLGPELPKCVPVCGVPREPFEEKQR
Description: The anti-Cl esterase (Clr, Cls) activity was determined according to the method of Okamura et al. [K. Okamura, M. Muramatsu and B. Fujii, Biochem. Biophys. […] The figures in Table 2 have the following meanings:
Cls: Molar concentration of the test compound which inhibits 50% of the ability of Cls to hydrolyse ATEE (acetyltyrosin ethyl ester).

Row | SMILES | IC50 (Trypsin) | IC50 (Plasmin) | IC50 (Kallikrein) | IC50 (Thrombin) | IC50 (Clr) | Inhibition of complement mediated hemolysis (%) (complement; compound at 1 × 10^-4) | Inhibition of complement mediated hemolysis (%) (complement; compound at 1 × 10^-5) | Inhibition of complement mediated hemolysis (%) (complement; compound at 1 × 10^-6) | Inhibition of complement mediated hemolysis (%) (complement; compound at 1 × 10^-7) | IC50 (Cls)
1 | N=C(N)c1ccc(OC(=O)CCN)c(C(=O)c2ccccc2)c1 [Compound 11, 4-amidino-2-benzoylphenyl 3-aminopropionate] | > 10000 nM | > 10000 nM | > 10000 nM | > 10000 nM | > 10000 nM | 17.4% | 2.5% | 2.5% | 3.5% | 
2 | COc1cc(C(=N)N)ccc1OC(=O)CCCc1ccc([N+](=O)[O-])cc1 [Compound 82] |  |  |  |  | > 10000 nM | 29.8% | 0% | 0% | 0% | > 10000 nM
3 | N=C(N)c1ccc(OC(=O)C2CC2)c(C(=O)c2ccccc2)c1 [Compound 8] | 2000 nM | 2000 nM | 3000 nM |  | > 10000 nM |  | 90.5% | 22.0% | 0% | 
4 | CCC(=Cc1ccc(NC(=N)N)cc1)C(=O)Oc1ccc(C(=N)N)cc1C(=O)c1ccccc1 [Compound 74] |  |  |  |  | > 10000 nM | 55.4% | 5.7% | 3.6% | 0% | 3000 nM
5 | Cc1cc(C(=O)Oc2ccc(C(=N)N)cc2C(=O)c2ccccc2)ccc1[N+](=O)[O-] [Compound 81] |  |  |  |  | > 10000 nM | 98.2% | 71.6% | 4.2% | 0% | > 10000 nM
6 | CC(=O)Oc1ccc(C(=N)N)cc1[N+](=O)[O-] [Compound 2, 4-amidino-2-nitrophenyl acetate] | > 10000 nM | > 10000 nM | > 10000 nM | > 10000 nM |  | 97.3% | 30.1% | 3.9% | 2.1% | 
7 | COC(=O)c1cc(C(=N)N)ccc1OC(=O)c1ccc(NC(=N)N)cc1 [Compound 72] |  |  |  |  | 1000 nM | 100% | 87.8% | 10.8% | 0% | 200 nM
8 | N=C(N)c1ccc(OC(=O)CCNC(=O)OCc2ccccc2)c(C(=O)c2ccccc2)c1 [Compound 10, 4-amidino-2-benzoylphenyl 3-benzyloxycarbonylaminopropionate] | > 10000 nM | > 10000 nM | > 10000 nM | 2000 nM | > 10000 nM | 95.9% | 80.3% | 17.0% | 2.3% | 
9 | N=C(N)Nc1ccc(C(=O)Oc2ccc(C(=N)N)cc2C(=O)c2ccccc2)c(Cl)c1 [Compound 77] |  |  |  |  | > 10000 nM | 97.3% | 48.9% | 1.8% | 0% | 800 nM
10 | COC(=O)c1cc(C(=N)N)ccc1OC(=O)c1ccc(F)cc1 [Compound 84] |  |  |  |  | > 10000 nM | 98.6% | 67.7% | 2.0% | 0% | 400 nM
11 | CSc1ccc(C(=O)Oc2ccc(C(=N)N)cc2C(=O)c2ccccc2)cc1 [Compound 49] | 30 nM | 200 nM | 400 nM | < 10 nM | 1000 nM | 83.8% | 94.6% | 97.5% | 75.1% | 
12 | COc1cc(C(=N)N)ccc1OC(=O)c1ccc([N+](=O)[O-])c(C)c1 [Compound 80] |  |  |  |  | > 10000 nM | 66.5% | 6.9% | 0% | 0% | > 10000 nM
13 | COc1cc(C(=N)N)ccc1OC(=O)c1ccc(NC(=N)N)c(C)c1 [Compound 75] |  |  |  |  | 8000 nM | 45.2% | 3.2% | 0% | 0% | 3000 nM
14 | N=C(N)c1ccc(OC(=O)c2ccc(F)cc2)c([N+](=O)[O-])c1 [Compound 85] |  |  |  |  | 600 nM | 98.6% | 97.9% | 67.1% | 7.0% | 500 nM
15 | COC(=O)c1cc(C(=N)N)ccc1OC(=O)c1ccccc1 [Compound 25, 4-amidino-2-methoxycarbonylphenyl benzoate] | 300 nM | 600 nM | > 10000 nM |  | 4000 nM | 100.0% | 93.1% | 38.6% | 11.6% | 200 nM
16 | COc1cc(C(=N)N)ccc1OC(=O)c1ccc(NC(=N)N)cc1Cl [Compound 76] |  |  |  |  | > 10000 nM | 34.8% | 4.8% | 0% | 0% | > 10000 nM
